Measurements published in patent US10117877B2, “Methods for fat reduction” (ALLERGAN, INC., priority 2015, dated 2018).
Entries after “also recorded” stand apart in the source; their conditions may differ.

Legend:
[1] = system: Human Hair Dermal Papilla Cells (HHDPCs); experiment: in vitro impedance (cell dielectric spectroscopy, CellKey) assay with human dermal papilla cells; format: cell-based; settings: 10^−5 to 10^−12 M, impedance measured over 20 minutes, three independent experiments
Description: In this example, the lack of activity of the compound according to Formulas I and II is shown. In general, bimatoprost or the compound of Formula I was incubated at concentrations from 10^−5 and 10^−12 M with human dermal papilla cells in an in vitro impedance assay. […] Three independent experiments were performed.
More specifically, Human Hair Dermal Papilla Cells (HHDPCs) were expanded in specific culture medium (Promo Cell). After growing, the cells were seeded on 96 well plates coated with poly-L-Lysine at 20,000 cells per well. Cells were incubated during 24 hours at 37° C., 5% CO2. The day of the experiment, the culture medium was eliminated and replaced by HBSS containing BSA, 0.1% v/v. The cells were incubated in the CellKey system, for 4 hours at 28° C. before using to test compounds. Bimatoprost, the compound of Formula I, and/or the compound of Formula II were tested at […] from 10^−5 to 10^−12 M. The change in impedance was measured over 20 minutes. The background was subtracted and the impedance signal was normalized to the reference (bimatoprost) for the compound of Formula I and the compound of Formula II. The data presented is in triplicate and of three independent experiments.

[2] = system: prostamide receptors on human pre-adipocytes; experiment: xCelligence impedance assay on pre-adipocytes; format: cell-based; settings: for EC50: 20 min, human pre-adipocytes, 7 concentrations (10^−5 to 10^−9 M), signal measured for 20 minutes; for potency relative to bimatoprost on human pre-adipocytes: comparison of the EC50 values of Table 1; for stimulation of prostamide receptors on human pre-adipocytes: xCelligence impedance assay
Description: In this example it is shown that the compounds of Formulas I and II stimulates pre-adipocytes. In general, the compounds of Formulas I and II and bimatoprost were tested in the xCelligence impedance assay.
More specifically, pre-adipocytes were purchased from Lonza. Cells were expanded in Pre-adipocyte maintenance medium (Lonza, Switzerland). Once expanded, 10,000 cells per well were plated into xCelligence 96-well plates and incubated at 37° C. for 72 hours until the impedance signal normalized. Once normalized, media was switched to serum-free pre-adipocyte media (PDM-2) for 2 hours at 37° C. Once the signal stabilized for 30 minutes, compounds were added at 7 concentrations (10^−5 to 10^−9 M) and the signal measured for 20 minutes. The change in impedance was normalized to the background reading (buffer alone) and the EC50 calculations were determined using prism software.

[3] = system: female C57BL/6J mice; experiment: in vivo mouse hair re-growth model, topical on shaved backs; settings: 0.03% topical in minoxidil formulation; for full hair re-growth: shaved backs of mice
Description: In general, the compound of formula I and bimatoprost were prepared in the minoxidil formulation (50% Propylene Glycol; 30% Ethyl Alcohol) at a concentration of 0.03% for both compounds. Both compounds were given topically to shaved backs of mice (as described in Khidhir et al. FASEB J. 2013 27(2):557-567).
More specifically, female C57BL/6J mice (cat. no. 000664; Jackson Laboratory, Bar Harbor, Me., USA), aged 7 weeks, were randomly distributed into 4 groups to avoid any sibling bias and housed in groups of 5 with standard diet food pellets and water available ad libitum. […] From the next day, termed d 0 (zero), each mouse was treated topically with either the vehicle alone (ethanol:propylene glycol:water 3:5:2) or 0.03, 0.10, or 0.30% bimatoprost in the vehicle for d 14; 10 mice were used for each condition. The appropriate solution (70 μl) was rubbed gently into the dorsal skin of each mouse daily; new gloves were worn for each treatment type. Hair growth was recorded daily for each animal for d 42, and dorsal photographs were taken at d 0, 7, 14, 17, 21, 24, 28, 31, 35, and 42. […] To calculate mean values, the first day of growth was designated as d 43 for any mouse showing no hair growth signs by the last day. The day when the shaved dorsal area was fully covered with new black hairs, i.e., there was no pink skin remaining and no visible difference in hair length to the adjacent unshaved areas, was also recorded. This assay has been successfully used to evaluate compounds that cause hair growth (see, e.g., Khidhir et al. FASB J. 2013, 27, 557-567; Plikus et al. J. Invest. Dermatol. 2008, 128, 1071-1080).

[4] = body weight gain in rats on daily oral gavage for 26 weeks; format: in vivo, rats (Hsd: Sprague Dawley)
Description: In this example it is shown that the compound of Formula I when administration orally daily results in reduction in weight gain and lower mean body weights. In general males rats (n=17-20) and female rats (n=17-20) were administered orally (by gavage) daily for 6 months at the doses indicated below.
More specifically, male and female rats (Hsd: Sprague Dawley) were assigned to four groups and administered test article formulations (0.03, 0.3, or 5 mg/kg/day compound of Formula I) or vehicle control article (0 mg/mL [0%] compound of Formula I [placebo] containing 3% hydroxypropyl-β-cyclodextrin [30 mg/mL (150 mg/kg/day)] and 10 mM phosphate buffered saline) via oral gavage once daily for 26 weeks at a volume of 5 mL/kg. Animals were sacrificed at the end of the dosing phase (up to 15 animals/sex/group) or at the end of the 4-week recovery phase (5 animals/sex/group in dose groups given vehicle control article and 5 mg/kg/day the compound of Formula I). These animals were on a restricted diet due to the length of the study. Weights were measured once per week.

[5] = 5 mg/kg/day oral gavage daily for 6 months, p<0.05

SMILES | change in impedance (agonist response) on human dermal papilla cells [1] | EC50 [2] [nM] | potency relative to bimatoprost on human pre-adipocytes [2] | stimulation of prostamide receptors on human pre-adipocytes [2] | start of hair re-growth [3] | full hair re-growth [3] | weight gain, female rats ([4]; 0.3 mg/kg/day oral gavage daily for 6 months, p<0.05) | weight gain, female rats [4, 5] | weight gain, male rats [4, 5] | reversibility of the weight effect after administration ceased ([4]; 4-week recovery phase after 5 mg/kg/day) | start of the decrease in body weight gain ([4]; daily oral administration, male and female rats, persisted up to 183 days) [days]
NC(=O)CCC/C=C\C[C@@H]1[C@@H](/C=C/[C@@H](O)CCc2cc(Br)sc2Br)[C@H](O)C[C@@H]1O [Formula II] | do not show activity | 11.7 | relatively more potent than bimatoprost | stimulate prostamide receptors |  |  |  |  |  |  | 
NC(=O)CCC/C=C\C[C@@H]1[C@@H](/C=C/[C@@H](O)CCc2cc(Cl)sc2Cl)[C@H](O)C[C@@H]1O [Formula I] | did not produce any detectable effect; also recorded: do not show activity | 10.7 | relatively more potent than bimatoprost | stimulate prostamide receptors | appears to boost the start to hair re-growth | does not result in full hair re-growth | inhibited weight gain | inhibited weight gain | inhibited weight gain | somewhat reversible | 14
CCNC(=O)CCC/C=C\C[C@@H]1[C@@H](/C=C/[C@@H](O)CCc2ccccc2)[C@H](O)C[C@@H]1O [Bimatoprost, bimatoprost, reference compound] | reduction in impedance; also recorded: shows activity | 784 |  | stimulate prostamide receptors | accelerates both time to start and full hair re-growth | accelerates both time to start and full hair re-growth |  |  |  |  | 
